According to PubChem BioAssay (NCI):
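Method: 48-hour compound exposure of cells in 96-well plates, five concentrations, linear interpolation of endpoints. The concentration for full growth arrest is given as TGI.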

How the values were obtained:
Assay in all cases: DTP human tumour cell line panel, 48 h
BT-549 breast = test system: BT-549 breast
UACC-257 melanoma = test system: UACC-257 melanoma
MALME-3M melanoma = test system: MALME-3M melanoma
NCI-H23 lung = test system: NCI-H23 lung
HCT-116 colon = test system: HCT-116 colon
HT29 colon = test system: HT29 colon
CCRF-CEM leukemia = test system: CCRF-CEM leukemia
HCT-15 colon = test system: HCT-15 colon
OVCAR-5 ovarian = test system: OVCAR-5 ovarian
NCI-H522 lung = test system: NCI-H522 lung
KM12 colon = test system: KM12 colon
IGROV1 ovarian = test system: IGROV1 ovarian
CAKI-1 renal = test system: CAKI-1 renal
TK-10 renal = test system: TK-10 renal
DU-145 prostate = test system: DU-145 prostate
ACHN renal = test system: ACHN renal
A549 NSCLC = test system: A549 NSCLC
SR leukemia = test system: SR leukemia
MDA-N = test system: MDA-N
HOP-92 NSCLC = test system: HOP-92 NSCLC
NCI-H460 lung = test system: NCI-H460 lung
M14 melanoma = test system: M14 melanoma
NCI-H226 lung = test system: NCI-H226 lung
T-47D breast = test system: T-47D breast
SF-268 CNS = test system: SF-268 CNS
786-0 renal = test system: 786-0 renal
HOP-62 NSCLC = test system: HOP-62 NSCLC
NCI/ADR-RES ovarian = test system: NCI/ADR-RES ovarian
SNB-75 CNS = test system: SNB-75 CNS
SN12C renal = test system: SN12C renal
OVCAR-8 ovarian = test system: OVCAR-8 ovarian
SW-620 colon = test system: SW-620 colon
OVCAR-3 ovarian = test system: OVCAR-3 ovarian
K-562 leukemia = test system: K-562 leukemia
MDA-MB-435 = test system: MDA-MB-435
UO-31 renal = test system: UO-31 renal
HS 578T breast = test system: HS 578T breast
SF-295 CNS = test system: SF-295 CNS
U251 CNS = test system: U251 CNS
RXF 393 renal = test system: RXF 393 renal
SNB-19 CNS = test system: SNB-19 CNS
HL-60(TB) leukemia = test system: HL-60(TB) leukemia
SF-539 CNS = test system: SF-539 CNS
SK-MEL-28 melanoma = test system: SK-MEL-28 melanoma
COLO 205 colon = test system: COLO 205 colon
HCC-2998 colon = test system: HCC-2998 colon
MDA-MB-231 breast = test system: MDA-MB-231 breast
SK-MEL-5 melanoma = test system: SK-MEL-5 melanoma
RPMI-8226 leukemia = test system: RPMI-8226 leukemia
PC-3 prostate = test system: PC-3 prostate
MCF7 breast = test system: MCF7 breast
EKVX NSCLC = test system: EKVX NSCLC
A498 renal = test system: A498 renal
LOX IMVI melanoma = test system: LOX IMVI melanoma
OVCAR-4 ovarian = test system: OVCAR-4 ovarian
MOLT-4 leukemia = test system: MOLT-4 leukemia
SK-OV-3 ovarian = test system: SK-OV-3 ovarian
UACC-62 melanoma = test system: UACC-62 melanoma
SK-MEL-2 melanoma = test system: SK-MEL-2 melanoma

Cc1n[nH]c(=O)n1-c1cccnc1
TGI (BT-549 breast): > 100 µM
TGI (UACC-257 melanoma): > 100 µM
TGI (MALME-3M melanoma): > 100 µM
TGI (NCI-H23 lung): > 100 µM
TGI (HCT-116 colon): > 100 µM
TGI (HT29 colon): > 100 µM
TGI (CCRF-CEM leukemia): > 100 µM
TGI (HCT-15 colon): > 100 µM
TGI (OVCAR-5 ovarian): > 100 µM
TGI (NCI-H522 lung): > 100 µM
TGI (KM12 colon): > 100 µM
TGI (IGROV1 ovarian): > 100 µM
TGI (CAKI-1 renal): > 100 µM
TGI (TK-10 renal): > 100 µM
TGI (DU-145 prostate): > 100 µM
TGI (ACHN renal): > 100 µM
TGI (A549 NSCLC): > 100 µM
TGI (SR leukemia): > 100 µM
TGI (MDA-N): > 100 µM
TGI (HOP-92 NSCLC): > 100 µM
TGI (NCI-H460 lung): > 100 µM
TGI (M14 melanoma): > 100 µM
TGI (NCI-H226 lung): > 100 µM
TGI (T-47D breast): > 100 µM
TGI (SF-268 CNS): > 100 µM
TGI (786-0 renal): > 100 µM
TGI (HOP-62 NSCLC): > 100 µM
TGI (NCI/ADR-RES ovarian): > 100 µM
TGI (SNB-75 CNS): > 100 µM
TGI (SN12C renal): > 100 µM
TGI (OVCAR-8 ovarian): > 100 µM
TGI (SW-620 colon): > 100 µM
TGI (OVCAR-3 ovarian): > 100 µM
TGI (K-562 leukemia): > 100 µM
TGI (MDA-MB-435): > 100 µM
TGI (UO-31 renal): > 100 µM
TGI (HS 578T breast): > 100 µM
TGI (SF-295 CNS): > 100 µM
TGI (U251 CNS): > 100 µM
TGI (RXF 393 renal): > 100 µM
TGI (SNB-19 CNS): > 100 µM
TGI (HL-60(TB) leukemia): > 100 µM
TGI (SF-539 CNS): > 100 µM
TGI (SK-MEL-28 melanoma): > 100 µM
TGI (COLO 205 colon): > 100 µM
TGI (HCC-2998 colon): > 100 µM
TGI (MDA-MB-231 breast): > 100 µM
TGI (SK-MEL-5 melanoma): > 100 µM
TGI (RPMI-8226 leukemia): > 100 µM
TGI (PC-3 prostate): > 100 µM
TGI (MCF7 breast): > 100 µM
TGI (EKVX NSCLC): > 100 µM
TGI (A498 renal): > 100 µM
TGI (LOX IMVI melanoma): > 100 µM
TGI (OVCAR-4 ovarian): > 100 µM
TGI (MOLT-4 leukemia): > 100 µM

COC1/C=C/C(C)C(OC)CC(O)/C=C/C(C)C(C(C)C(OC)C(C)CCC(=O)C(C)C(C/C=C/N(C)C=O)OC)OC(=O)/C=C/C=C(\C)CC(OC)CC2=CC(=O)O[C@@H](C(C)C(OC)C1)[C@H]2O (some centres not stated)
TGI (BT-549 breast): 0.498 µM
TGI (UACC-257 melanoma): 0.318 µM
TGI (MALME-3M melanoma): 0.317 µM
TGI (NCI-H23 lung): 1.06 µM
TGI (HCT-116 colon): 0.41 µM
TGI (HT29 colon): > 5.01 µM
TGI (HCT-15 colon): 0.62 µM
TGI (OVCAR-5 ovarian): 1.86 µM
TGI (NCI-H522 lung): 0.653 µM
TGI (KM12 colon): > 6.11 µM
TGI (SK-OV-3 ovarian): 0.905 µM
TGI (IGROV1 ovarian): 0.423 µM
TGI (CAKI-1 renal): 0.0875 µM
TGI (TK-10 renal): 0.785 µM
TGI (DU-145 prostate): > 6.79 µM
TGI (ACHN renal): 1.32 µM
TGI (A549 NSCLC): 1.1 µM
TGI (SR leukemia): > 25 µM
TGI (MDA-N): 0.178 µM
TGI (HOP-92 NSCLC): 0.168 µM
TGI (NCI-H460 lung): 0.477 µM
TGI (M14 melanoma): 0.175 µM
TGI (T-47D breast): 6.27 µM
TGI (SF-268 CNS): > 5.72 µM
TGI (786-0 renal): 0.503 µM
TGI (HOP-62 NSCLC): 0.16 µM
TGI (NCI/ADR-RES ovarian): 1.14 µM
TGI (SNB-75 CNS): 0.32 µM
TGI (SN12C renal): > 25 µM
TGI (OVCAR-8 ovarian): 0.776 µM
TGI (SW-620 colon): > 12.4 µM
TGI (K-562 leukemia): > 25 µM
TGI (MDA-MB-435): 1.05 µM
TGI (UO-31 renal): 0.3 µM
TGI (HS 578T breast): 0.261 µM
TGI (SF-295 CNS): 0.362 µM
TGI (U251 CNS): 0.199 µM
TGI (RXF 393 renal): 0.265 µM
TGI (SNB-19 CNS): 0.239 µM
TGI (HL-60(TB) leukemia): > 25 µM
TGI (SF-539 CNS): 0.434 µM
TGI (SK-MEL-28 melanoma): 0.385 µM
TGI (COLO 205 colon): 0.418 µM
TGI (HCC-2998 colon): 1.35 µM
TGI (MDA-MB-231 breast): 0.106 µM
TGI (SK-MEL-5 melanoma): 0.274 µM
TGI (RPMI-8226 leukemia): 3.7 µM
TGI (PC-3 prostate): 1.09 µM
TGI (MCF7 breast): 0.409 µM
TGI (EKVX NSCLC): 1.32 µM
TGI (A498 renal): 0.131 µM
TGI (UACC-62 melanoma): 0.504 µM
TGI (OVCAR-4 ovarian): 1.21 µM

COC(=O)[C@]12CC[C@H]3CN(C(=O)OCc4ccccc4)[C@H]([C@H]31)[C@H](C(=O)OCC[Si](C)(C)C)N2S(=O)(=O)c1ccc(C)cc1
TGI (BT-549 breast): > 100 µM
TGI (UACC-257 melanoma): > 100 µM
TGI (MALME-3M melanoma): > 100 µM
TGI (NCI-H23 lung): > 100 µM
TGI (HCT-116 colon): > 100 µM
TGI (HT29 colon): > 100 µM
TGI (CCRF-CEM leukemia): > 100 µM
TGI (HCT-15 colon): > 100 µM
TGI (OVCAR-5 ovarian): > 100 µM
TGI (NCI-H522 lung): > 100 µM
TGI (KM12 colon): > 100 µM
TGI (SK-OV-3 ovarian): > 100 µM
TGI (IGROV1 ovarian): > 100 µM
TGI (CAKI-1 renal): > 100 µM
TGI (TK-10 renal): > 100 µM
TGI (DU-145 prostate): > 100 µM
TGI (ACHN renal): > 100 µM
TGI (A549 NSCLC): > 100 µM
TGI (SR leukemia): > 100 µM
TGI (MDA-N): > 100 µM
TGI (HOP-92 NSCLC): 9.68 µM
TGI (NCI-H460 lung): > 100 µM
TGI (M14 melanoma): > 100 µM
TGI (NCI-H226 lung): > 100 µM
TGI (T-47D breast): > 100 µM
TGI (SF-268 CNS): > 100 µM
TGI (786-0 renal): > 100 µM
TGI (HOP-62 NSCLC): > 100 µM
TGI (NCI/ADR-RES ovarian): > 100 µM
TGI (SN12C renal): > 100 µM
TGI (OVCAR-8 ovarian): > 100 µM
TGI (SW-620 colon): > 100 µM
TGI (OVCAR-3 ovarian): > 100 µM
TGI (K-562 leukemia): > 100 µM
TGI (MDA-MB-435): > 100 µM
TGI (UO-31 renal): > 100 µM
TGI (HS 578T breast): > 100 µM
TGI (SF-295 CNS): > 100 µM
TGI (U251 CNS): > 100 µM
TGI (RXF 393 renal): > 100 µM
TGI (SNB-19 CNS): > 100 µM
TGI (HL-60(TB) leukemia): > 100 µM
TGI (SF-539 CNS): > 100 µM
TGI (SK-MEL-2 melanoma): > 100 µM
TGI (SK-MEL-28 melanoma): > 100 µM
TGI (COLO 205 colon): > 100 µM
TGI (HCC-2998 colon): > 100 µM
TGI (MDA-MB-231 breast): > 100 µM
TGI (SK-MEL-5 melanoma): > 100 µM
TGI (RPMI-8226 leukemia): > 100 µM
TGI (PC-3 prostate): > 100 µM
TGI (MCF7 breast): > 100 µM
TGI (EKVX NSCLC): > 100 µM
TGI (A498 renal): > 100 µM
TGI (UACC-62 melanoma): > 100 µM
TGI (LOX IMVI melanoma): > 100 µM
TGI (OVCAR-4 ovarian): > 100 µM
TGI (MOLT-4 leukemia): > 100 µM
